Source: patent US20050032124A1, “Identification of genotype-selective agents for treating Huntington's disease” (priority 2003, published 2005)
≈ marks a conversion by molar mass, not a printed value. Read-outs that look alike come from different tables or passages of the source.

Columns and labels:
Assay in all cases: Calcein AM viability assay, dilution-series retest
TIP5/TERT cells = type: cell-based, human; settings: Homo sapiens, 48 h, read-out: IC50, TIP5-TERT
Description: (§1) In a third series, cell lines derived from independently prepared human TIP5 foreskin fibroblasts created by introducing cDNA constructs encoding hTERT, LT, ST and RASV12 (Lessnick et al., 2002, Cancer Cell 1, 393-401) were used. These cell lines were called, respectively: TIP5/TERT, TIP5/TERT/LT, TIP5/TERT/LT/ST, and TIP5/TERT/LT/ST/RAS^V12. In a fourth series, cell lines derived from TIP5 fibroblasts created by introducing cDNA constructs encoding hTERT, E6, E7, ST and RAS^V12 were used. These cell lines were named, respectively: TIP5/TERT/E6, TIP5/TERT/E6/E7, TIP5/TERT/E6/E7/ST, and TIP5/TERT/E6/E7/ST/RAS^V12. In this series, HPV E6 and E7, which inactivate p53 and RB, respectively, serve a similar function as LT in the previous series. However, by using HPV E6 and E7, Applicants were able to observe the effects of inactivating, separately and independently, p53 and RB. Results of a large-scale screen for compounds that display selective killing of these engineered tumorigenic cell lines are described in the examples that follow.
(§2) Calcein acetoxylmethyl ester (AM) is a cell membrane-permeable, non-fluorescent compound that is cleaved by intracellular esterases to form the anionic, cell-impermeable, fluorescent compound calcein. Viable cells are stained by calcein because of the presence of intracellular esterases and because the intact plasma membrane prevents fluorescent calcein from leaking out of cells (Wang et al., 1993, supra). Cells were seeded in 384-well plates using a Zymark Sciclone ALH, treated with each compound in triplicate at 4 μg/mL in the primary screen for two days, washed with phosphate-buffered saline on a Packard Minitrak with a 384-well washer and incubated for four hours with 0.7 μg/mL calcein (Molecular Probes). Total fluorescence intensity in each well was recorded on a Packard Fusion platereader, and converted to a percent inhibition of signal by subtracting the instrument background and dividing by the average signal obtained when cells were not treated with any compound.
(§3) Replica daughter plates were prepared with a Zymark Sciclone ALH and integrated Twister II by diluting stock plates 50 fold in medium lacking serum and pen/strep to obtain a compound concentration in daughter plates of 80 μg/ml with 2% DMSO. Assay plates were prepared by seeding cells in black, clear bottom 384-well plates in columns 1-23 (6000 cells/well in 57 μl) using a syringe bulk dispenser. Columns 3-22 were treated with compounds from a daughter library plate by transferring 3 μl from the daughter library plate using 384-position fixed cannula array. The final compound concentrations in assay plates were thus 4 μg/ml. The assay plates were incubated for 48 hours at 37° C. in humidified incubator containing 5% CO2. Plate processing for the calcein AM viability assay was performed using an integrated Minitrak/Sidetrak robotic system from Packard Bioscience (Perkin Elmer). Assay plates were washed with phosphate buffered saline, and 20 μl of calcein AM (0.7 μg/ml) per well was added. Plates were incubated at room temperature for 4 hours. Fluorescence intensity was determined using a Fusion platereader with filters centered on an excitation of 485 nm and an emission of 535 nm.
(§4) Compounds to be retested were purchased from manufacturers. Stocks were prepared in DMSO at a concentration of 1 mg/ml in 384-well polypropylene plates with a 16-point, two-fold dilution dose curve of each compound in a column, in duplicates. Column 1-2 and 23-24 were left empty for controls. Daughter retest plates were prepared from stock retest plate by diluting 66.6 fold in DMEM in 384-well deep-deep well plates (4.5 μl transfer into 300 μl). Cells were seeded at a density of 6000 per well in 40 μl, and 20 μl was added from a daughter retest plate. The plates were incubated for two days at 37° C. with 5% CO2.
(§5) Mean RFU (relative fluorescence units) for untreated cells was calculated by averaging columns 1, 2, and 23 (wells with cells but lacking compounds). […]

[1] = system: TIP5/TERT/LT/ST/RAS^V12 cells; type: cell-based, human; settings: Homo sapiens, 48 h, read-out: IC50, TIP5 TERT/LT/ST/Ras^V12
Description: as §1, §2, §3, §4, §5

[2] = system: TIP5/TERT/E6/E7/ST/RAS^V12 cells; type: cell-based, human; settings: Homo sapiens, 48 h, read-out: IC50, TIP5-TERT/E6E7 ST/Ras^V12
Description: as §1, §2, §3, §4, §5

TIP5/TERT/E6/E7 cells = type: cell-based, human; settings: for IC50: Homo sapiens, 48 h, read-out: IC50, TIP5-TERT/E6E7
Description: as §1, §2, §3, §4, §5

[3] = system: BJ-TERT/p53DD/CDK4^R24C/D1/ST/RAS^V12 cells; type: cell-based; settings: Homo sapiens, 48 h, read-out: IC50, BJ-TERT/p53DD/CDK4^R24C/cyclineD1/ST/Ras^V12
Description: These engineered tumorigenic cells make use of dominantly acting viral oncoproteins such as LT, ST, E6 and E7. These viral proteins are possibly involved in cell transformation in specific forms of cancer, namely simian virus 40-induced malignant mesothelioma (Testa and Giordano, 2001, Semin Cancer Biol 11, 31-8) and human papillomavirus-induced cervical carcinoma (Bosch et al., 2002, J Clin Pathol 55, 244-65), and have been used to disrupt p53 and pRB function to transform cells in vitro and in vivo (Elenbaas et al., 2001, Genes Dev 15, 50-65; Jorcyk et al., 1998, Prostate 34, 10-22; Perez-Stable et al., 1997, Cancer Res 57, 900-6; Rich et al., 2001, Cancer Res 61, 3556-60; Sandmoller et al., 1995, Cell Growth Differ 6, 97-103). Applicants made use of these two different methods for inactivating cellular proteins, (they tested the effects of both LT and E6/E7-based inactivation of pRB and p53) in order to control for idiosyncratic effects that might be observed with a specific viral protein. The selectivity of these compounds was also confirmed in a cell line expressing dominant negative inhibitors of p53 and pRB that are not derived from viral elements. This cell line expresses (i) a truncated form of p53 (p53DD) that disrupts tetramerization of endogenous p53, (ii) a CDK4^R24C mutant resistant to inhibition by p16^INK4A and p15^INK4B (the major negative regulators of CDK4) and (iii) cyclin D1. The effects of the nine genotype-selective compounds were tested at a range of concentrations in these cells, which are referred to as BJ-TERT/ p53DD/CDK4^R24C/D1/ST/RAS^V12 cells (Table 1). […] However, the overall results of the analysis were unchanged by the use of non-viral proteins in this cell line (Table 1).
as §2, §3
Compounds to be retested were purchased from manufacturers. […]

[4] = TIP5-TERT cells, 16-point two-fold dilution, two days
[5] = TIP5 TERT/LT/ST/Ras^V12 cells, 16-point two-fold dilution, two days
[6] = TIP5-TERT/E6E7/ST/Ras^V12 cells, 16-point two-fold dilution, two days
[7] = TIP5-TERT/E6E7 cells, 16-point two-fold dilution, two days
[8] = BJ-TERT/p53DD/CDK4^R24C/cyclineD1/ST/Ras^V12 cells, 16-point two-fold dilution, two days

Row | SMILES | IC50 (TIP5/TERT cells; [4]) [µg/mL] | IC50 [1, 5] [µg/mL] | IC50 [2, 6] [µg/mL] | IC50 (TIP5/TERT/E6/E7 cells; [7]) [µg/mL] | IC50 [3, 8] [µg/mL] | IC50 (TIP5/TERT cells) [µg/mL] | IC50 [1] [µg/mL] | IC50 [2] [µg/mL] | IC50 (TIP5/TERT/E6/E7 cells) [µg/mL] | IC50 [3] [µg/mL] | activity in cells lacking RB function (via expression of E7) (TIP5/TERT/E6/E7 cells)
1 | O=C1c2c(O)ccc(O)c2C(=O)c2c(NCCNCCO)ccc(NCCNCCO)c21 [Mitoxantrone] | > 5 | 1.25 (≈ 2.81 µM) | 1.25 (≈ 2.81 µM) | 0.625 (≈ 1.41 µM) | 1.25 (≈ 2.81 µM) |  |  |  |  |  | 
2 | COc1cccc2c1C(=O)c1c(O)c3c(c(O)c1C2=O)C[C@@](O)(C(=O)CO)C[C@@H]3O[C@H]1C[C@H](N)[C@H](O)[C@H](C)O1 [Doxorubicin] | > 5 | 0.625 (≈ 1.15 µM) | 1.25 (≈ 2.3 µM) | 1.25 (≈ 2.3 µM) | 1.25 (≈ 2.3 µM) |  |  |  |  |  | 
3 | CS[C@H]1SC[C@H]2C(=O)N(C)[C@@H](C(C)C)C(=O)OC[C@@H](NC(=O)c3cnc4ccccc4n3)C(=O)N[C@@H](C)C(=O)N(C)[C@@H]1C(=O)N(C)[C@@H](C(C)C)C(=O)OC[C@@H](NC(=O)c1cnc3ccccc3n1)C(=O)N[C@@H](C)C(=O)N2C [Echinomycin] |  |  |  |  |  | > 5 | 0.0024 (≈ 0.00218 µM) | 0.0048 (≈ 0.00436 µM) | 0.048 (≈ 0.0436 µM) | 0.078 (≈ 0.0708 µM) | 
4 | NC(=O)c1cn([C@@H]2O[C@H](CO)[C@@H](O)[C@H]2O)c2ncnc(N)c12 [Sangivamycin] |  |  |  |  |  | 1.25 (≈ 4.04 µM) | 0.078 (≈ 0.252 µM) | 0.078 (≈ 0.252 µM) | 0.078 (≈ 0.252 µM) | 0.078 (≈ 0.252 µM) | 
5 | COc1ccc(C[C@H]2C(=O)N[C@@H](C)C(=O)N(C)[C@@H]3C(=O)N(C)[C@@H](Cc4ccc(O)c(c4)Oc4ccc(cc4)[C@@H]3O)C(=O)N[C@H](C)C(=O)N[C@@H](C)C(=O)N2C)cc1 [Bouvardin] |  |  |  |  |  | > 5 | 0.039 (≈ 0.0505 µM) | 0.078 (≈ 0.101 µM) | 0.039 (≈ 0.0505 µM) | 0.156 (≈ 0.202 µM) | 
6 | COc1cccc2c1C(=O)c1c(O)c3c(c(O)c1C2=O)C[C@@](O)(C(C)=O)C[C@@H]3O[C@H]1C[C@H](N)[C@H](O)[C@H](C)O1 [Daunorubicin] |  |  |  |  |  | > 5 | 0.825 (≈ 1.56 µM) | 0.625 (≈ 1.18 µM) | 0.625 (≈ 1.18 µM) | 0.625 (≈ 1.18 µM) | 
7 | CC[C@@]1(O)C(=O)OCc2c1cc1n(c2=O)Cc2cc3ccccc3nc2-1 [Camptothecin] | > 5 | 0.156 (≈ 0.448 µM) | 0.156 (≈ 0.448 µM) | 0.625 (≈ 1.79 µM) | 1.25 (≈ 3.59 µM) |  |  |  |  |  | partially active
8 | CCOc1ccccc1-n1c(C(C)N2CCN(C(=O)COc3ccc(Cl)cc3)CC2)nc2ccccc2c1=O (centres unmarked) [Erastin] | > 5 | 2.5 (≈ 4.57 µM) | 5 (≈ 9.14 µM) | > 5 | 2.5 (≈ 4.57 µM) |  |  |  |  |  | 
